Experimental data taken from patent publication US12077503B2, “Substituted cyclic amides and their use as herbicides” (FMC CORPORATION, priority 2015, dated 2024).

Assays:
Type in all cases: in vivo
[1] = system: velvetleaf (Abutilon theophrasti); assay: Test G Post-Emergence Protocol; settings: Abutilon theophrasti, post-emergence, 312 h, read-out: Velvetleaf damage rating; for pest or weed control at 15.625 g/ha: 15.625 g ai/ha, evaluated after 13 days (100=total damage to plant; 0=no damage to plant); for pest or weed control at 62.5 g/ha: 62.5 g ai/ha; for pest or weed control at 62.5 g/ha / pest or weed control at 250 g/ha: evaluated after 13 days, 100=total damage to plant, 0=no damage to plant; for pest or weed control at 250 g/ha: 250 g ai/ha
How it was run: (§1)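 Seedlings grown 8 days in soil in a glasshouse (24/16 °C day/night, 14 h light, 65% humidity) were sprayed post-emergence with compound in acetone/water 50:50 plus 0.5% Tween 20 at 15.625, 62.5 or 250 g/ha. Damage was scored after 13 days on a 0–100 scale (100 = total damage).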

[2] = system: ivy-leaved morning glory (Ipomoea hederacea); assay: Test G Post-Emergence Protocol; settings: Ipomoea, post-emergence, 312 h, read-out: Morningglory, Ivy-leaved damage rating; for pest or weed control at 15.625 g/ha: 15.625 g ai/ha, evaluated after 13 days (100=total damage to plant; 0=no damage to plant); for pest or weed control at 62.5 g/ha: 62.5 g ai/ha; for pest or weed control at 62.5 g/ha / pest or weed control at 250 g/ha: evaluated after 13 days, 100=total damage to plant, 0=no damage to plant; for pest or weed control at 250 g/ha: 250 g ai/ha
How it was run: as §1

[3] = system: giant foxtail (Setaria faberi); assay: Test G Post-Emergence Protocol; settings: Setaria faberi, post-emergence, 312 h, read-out: Foxtail, Giant damage rating; for pest or weed control at 15.625 g/ha: 15.625 g ai/ha, evaluated after 13 days (100=total damage to plant; 0=no damage to plant); for pest or weed control at 62.5 g/ha: 62.5 g ai/ha; for pest or weed control at 62.5 g/ha / pest or weed control at 250 g/ha: evaluated after 13 days, 100=total damage to plant, 0=no damage to plant; for pest or weed control at 250 g/ha: 250 g ai/ha
How it was run: as §1

[4] = system: barnyardgrass (Echinochloa crus-galli); assay: Test G Post-Emergence Protocol; settings: Echinochloa crus-galli, post-emergence, 312 h, read-out: Barnyardgrass damage rating; for pest or weed control at 15.625 g/ha: 15.625 g ai/ha, evaluated after 13 days (100=total damage to plant; 0=no damage to plant); for pest or weed control at 62.5 g/ha: 62.5 g ai/ha; for pest or weed control at 62.5 g/ha / pest or weed control at 250 g/ha: evaluated after 13 days, 100=total damage to plant, 0=no damage to plant; for pest or weed control at 250 g/ha: 250 g ai/ha
How it was run: as §1

corn (Zea mays) [5] = assay: Test G Post-Emergence Protocol; settings: Zea mays, post-emergence, 312 h, read-out: Corn damage rating; for plant injury at 15.625 g/ha: 15.625 g ai/ha, evaluated after 13 days (100=total damage to plant; 0=no damage to plant); for plant injury at 62.5 g/ha: 62.5 g ai/ha; for plant injury at 62.5 g/ha / plant injury at 250 g/ha: evaluated after 13 days, 100=total damage to plant, 0=no damage to plant; for plant injury at 250 g/ha: 250 g ai/ha
How it was run: as §1

[6] = system: redroot pigweed (Amaranthus retroflexus); assay: Test G Post-Emergence Protocol; settings: Amaranthus retroflexus, post-emergence, 312 h, read-out: Pigweed, Redroot damage rating; for pest or weed control at 15.625 g/ha: 15.625 g ai/ha, evaluated after 13 days (100=total damage to plant; 0=no damage to plant); for pest or weed control at 62.5 g/ha: 62.5 g ai/ha; for pest or weed control at 62.5 g/ha / pest or weed control at 250 g/ha: evaluated after 13 days, 100=total damage to plant, 0=no damage to plant; for pest or weed control at 250 g/ha: 250 g ai/ha
How it was run: as §1

[7] = system: velvetleaf (Abutilon theophrasti); assay: Test G Pre-Emergence Protocol; settings: Abutilon theophrasti, pre-emergence, 312 h, evaluated after 13 days; for pest or weed control at 15.625 g/ha: 15.625 g ai/ha; for pest or weed control at 15.625 g/ha / pest or weed control at 250 g/ha: read-out: Velvetleaf damage rating (100=total damage to plant; 0=no damage to plant); for pest or weed control at 62.5 g/ha: 62.5 g ai/ha, 100=total damage to plant, 0=no damage to plant, read-out: Velvetleaf damage rating; for pest or weed control at 250 g/ha: 250 g ai/ha
How it was run: (§2)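 Spraying took place one day after sowing, at 15.625, 62.5 or 250 g/ha, using an acetone/water (50:50) spray solution containing 0.5% Tween 20. Plants were kept under glasshouse conditions (24/16 °C, 14 h light, 65% humidity, watered twice daily), and injury was rated 0–100 at day 13.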

[8] = system: ivy-leaved morning glory (Ipomoea hederacea); assay: Test G Pre-Emergence Protocol; settings: Ipomoea, pre-emergence, 312 h, evaluated after 13 days; for pest or weed control at 15.625 g/ha: 15.625 g ai/ha; for pest or weed control at 15.625 g/ha / pest or weed control at 250 g/ha: read-out: Morningglory, Ivy-leaved damage rating (100=total damage to plant; 0=no damage to plant); for pest or weed control at 62.5 g/ha: 62.5 g ai/ha, 100=total damage to plant, 0=no damage to plant, read-out: Morningglory, Ivy-leaved damage rating; for pest or weed control at 250 g/ha: 250 g ai/ha
How it was run: as §2

[9] = system: giant foxtail (Setaria faberi); assay: Test G Pre-Emergence Protocol; settings: Setaria faberi, pre-emergence, 312 h, evaluated after 13 days; for pest or weed control at 15.625 g/ha: 15.625 g ai/ha; for pest or weed control at 15.625 g/ha / pest or weed control at 250 g/ha: read-out: Foxtail, Giant damage rating (100=total damage to plant; 0=no damage to plant); for pest or weed control at 62.5 g/ha: 62.5 g ai/ha, 100=total damage to plant, 0=no damage to plant, read-out: Foxtail, Giant damage rating; for pest or weed control at 250 g/ha: 250 g ai/ha
How it was run: as §2

[10] = system: barnyardgrass (Echinochloa crus-galli); assay: Test G Pre-Emergence Protocol; settings: Echinochloa crus-galli, pre-emergence, 312 h, evaluated after 13 days; for pest or weed control at 15.625 g/ha: 15.625 g ai/ha; for pest or weed control at 15.625 g/ha / pest or weed control at 250 g/ha: read-out: Barnyardgrass damage rating (100=total damage to plant; 0=no damage to plant); for pest or weed control at 62.5 g/ha: 62.5 g ai/ha, 100=total damage to plant, 0=no damage to plant, read-out: Barnyardgrass damage rating; for pest or weed control at 250 g/ha: 250 g ai/ha
How it was run: as §2

corn (Zea mays) [11] = assay: Test G Pre-Emergence Protocol; settings: Zea mays, pre-emergence, 312 h, evaluated after 13 days; for plant injury at 15.625 g/ha: 15.625 g ai/ha; for plant injury at 15.625 g/ha / plant injury at 250 g/ha: read-out: Corn damage rating (100=total damage to plant; 0=no damage to plant); for plant injury at 62.5 g/ha: 62.5 g ai/ha, 100=total damage to plant, 0=no damage to plant, read-out: Corn damage rating; for plant injury at 250 g/ha: 250 g ai/ha
How it was run: as §2

[12] = system: redroot pigweed (Amaranthus retroflexus); assay: Test G Pre-Emergence Protocol; settings: Amaranthus retroflexus, pre-emergence, 312 h, evaluated after 13 days; for pest or weed control at 15.625 g/ha: 15.625 g ai/ha; for pest or weed control at 15.625 g/ha / pest or weed control at 250 g/ha: read-out: Pigweed, Redroot damage rating (100=total damage to plant; 0=no damage to plant); for pest or weed control at 62.5 g/ha: 62.5 g ai/ha, 100=total damage to plant, 0=no damage to plant, read-out: Pigweed, Redroot damage rating; for pest or weed control at 250 g/ha: 250 g ai/ha
How it was run: as §2

SMILES	pest or weed control at 15.625 g/ha [1]	pest or weed control at 62.5 g/ha [1]	pest or weed control at 250 g/ha [1]	pest or weed control at 15.625 g/ha [2]	pest or weed control at 62.5 g/ha [2]	pest or weed control at 250 g/ha [2]	pest or weed control at 15.625 g/ha [3]	pest or weed control at 62.5 g/ha [3]	pest or weed control at 250 g/ha [3]	pest or weed control at 15.625 g/ha [4]	pest or weed control at 62.5 g/ha [4]	pest or weed control at 250 g/ha [4]	plant injury at 15.625 g/ha (corn (Zea mays) [5])	plant injury at 62.5 g/ha (corn (Zea mays) [5])	plant injury at 250 g/ha (corn (Zea mays) [5])	pest or weed control at 15.625 g/ha [6]	pest or weed control at 62.5 g/ha [6]	pest or weed control at 250 g/ha [6]	pest or weed control at 15.625 g/ha [7]	pest or weed control at 62.5 g/ha [7]	further results
CN1C[C@@H](c2ccc(C(F)(F)F)cc2)[C@H](C(=O)Nc2ccnc(Cl)c2F)C1=O (racemic) [Compound 1656]	0%	0%	20%	0%	0%	0%	20%	30%	80%	10%	10%	30%	0%	0%	0%	0%	20%	30%	0%	0%	pest or weed control at 250 g/ha [7]: 0%; pest or weed control at 15.625 g/ha [8]: 0%; pest or weed control at 62.5 g/ha [8]: 20%; pest or weed control at 250 g/ha [8]: 0%; pest or weed control at 15.625 g/ha [9]: 0%; pest or weed control at 62.5 g/ha [9]: 0%; pest or weed control at 250 g/ha [9]: 80%; pest or weed control at 15.625 g/ha [10]: 0%; pest or weed control at 62.5 g/ha [10]: 0%; pest or weed control at 250 g/ha [10]: 20%; plant injury at 15.625 g/ha (corn (Zea mays) [11]): 0%; plant injury at 62.5 g/ha (corn (Zea mays) [11]): 0%; plant injury at 250 g/ha (corn (Zea mays) [11]): 0%; pest or weed control at 15.625 g/ha [12]: 0%; pest or weed control at 62.5 g/ha [12]: 0%; pest or weed control at 250 g/ha [12]: 0%
CN1C[C@@H](c2ccc(C(F)(F)F)cc2)[C@H](C(=O)Nc2cncc(F)n2)C1=O (racemic) [Compound 1657]	0%	20%	20%	0%	10%	30%	0%	40%	70%	0%	10%	40%	0%	10%	20%	0%	40%	60%	0%	0%	pest or weed control at 250 g/ha [7]: 0%; pest or weed control at 15.625 g/ha [8]: 0%; pest or weed control at 62.5 g/ha [8]: 0%; pest or weed control at 250 g/ha [8]: 0%; pest or weed control at 15.625 g/ha [9]: 0%; pest or weed control at 62.5 g/ha [9]: 60%; pest or weed control at 250 g/ha [9]: 80%; pest or weed control at 15.625 g/ha [10]: 0%; pest or weed control at 62.5 g/ha [10]: 10%; pest or weed control at 250 g/ha [10]: 20%; plant injury at 15.625 g/ha (corn (Zea mays) [11]): 0%; plant injury at 62.5 g/ha (corn (Zea mays) [11]): 0%; plant injury at 250 g/ha (corn (Zea mays) [11]): 0%; pest or weed control at 15.625 g/ha [12]: 0%; pest or weed control at 62.5 g/ha [12]: 20%; pest or weed control at 250 g/ha [12]: 50%
CN1C[C@@H](c2ccc(C(F)(F)F)cc2)[C@H](C(=O)Nc2n[nH]cc2Cl)C1=O (racemic) [Compound 1658]	0%	0%	10%	0%	0%	20%	0%	0%	20%	0%	0%	20%	0%	0%	10%	0%	10%	40%	0%	0%	pest or weed control at 250 g/ha [7]: 0%; pest or weed control at 15.625 g/ha [8]: 0%; pest or weed control at 62.5 g/ha [8]: 0%; pest or weed control at 250 g/ha [8]: 0%; pest or weed control at 15.625 g/ha [9]: 0%; pest or weed control at 62.5 g/ha [9]: 0%; pest or weed control at 250 g/ha [9]: 0%; pest or weed control at 15.625 g/ha [10]: 0%; pest or weed control at 62.5 g/ha [10]: 0%; pest or weed control at 250 g/ha [10]: 0%; plant injury at 15.625 g/ha (corn (Zea mays) [11]): 0%; plant injury at 62.5 g/ha (corn (Zea mays) [11]): 0%; plant injury at 250 g/ha (corn (Zea mays) [11]): 0%; pest or weed control at 15.625 g/ha [12]: 0%; pest or weed control at 62.5 g/ha [12]: 0%; pest or weed control at 250 g/ha [12]: 0%
